Data taken from patent US11052092B2, “N-{[2-(piperidin-1-yl)phenyl](phenyl)methyl}-2-(3-oxo-3,4-dihydro-2H-1,4-benzoxazin-7-yl)acetamide derivatives and related compounds as ROR-gamma modulators for treating autoimmune diseases” (Genfit, priority 2017, dated 2021).

These molecules were tested against T1, human RORγt (Homo sapiens, UniProt P51449) (assay: RORE Luciferase/RORγt transactivation assay). Conditions: COS-7 cells transfected with human IL-17 promoter luciferase reporter and RORγt plasmid; 20 h with compound; read-out: IC50, RORγt activity inhibition.
T1 construct: the full-length cDNA of human RORγt; expressed in transfected cells; host or cells: COS-7 (monkey kidney)
T1 sequence (P51449 1-497 isoform P51449-2): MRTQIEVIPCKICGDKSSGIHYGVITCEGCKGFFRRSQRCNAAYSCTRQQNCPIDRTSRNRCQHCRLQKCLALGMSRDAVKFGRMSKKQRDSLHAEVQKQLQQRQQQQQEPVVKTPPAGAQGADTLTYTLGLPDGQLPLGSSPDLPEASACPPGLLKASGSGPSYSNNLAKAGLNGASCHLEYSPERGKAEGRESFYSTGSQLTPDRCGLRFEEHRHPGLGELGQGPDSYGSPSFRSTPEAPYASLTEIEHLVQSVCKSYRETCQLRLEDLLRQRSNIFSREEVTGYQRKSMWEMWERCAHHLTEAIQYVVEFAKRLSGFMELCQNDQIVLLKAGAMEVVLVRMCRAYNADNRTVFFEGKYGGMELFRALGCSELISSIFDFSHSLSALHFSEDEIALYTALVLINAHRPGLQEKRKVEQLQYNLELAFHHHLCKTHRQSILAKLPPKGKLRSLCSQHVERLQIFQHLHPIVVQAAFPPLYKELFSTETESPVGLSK
Type: cell-based
Method: It is well known that RORγ binds to a conserved non-coding sequence (CNS) enhancer element in the IL-17 promoter.
Culture medium was changed every 2 days.
The 4.3 Kb human IL-17 promoter containing the RORγ-specific CNS enhancer element was PCR amplified from human genomic DNA and cloned into a pGL3-TKLuc2Cp reporter plasmid.
The luciferase reporter plasmid and the RORγt overexpression plasmid were transfected into COS-7 cell line using 4 μLJetPEI™/μg of DNA. Briefly, 150 ng of DNA (ration ½ between RORE-Tk Luc2Cp and cDNA RORγt or the empty vector for the negative control) was served to transfect adherent COS-7 cells in a […] culture flask, in complete medium (see cos-7 cell line culture).
Cells were then detached (using trypsin) and washed by centrifugation at 300 g for 10 minutes. Cell pellet was resuspended in serum free/phenol red free DMEM and seeded in 384 well plates at a density of 10000 cells/well and then incubated for 4 h at 37° C.
Compounds were dissolved in 100% DMSO to obtain 10 mM stock solutions. For each compound, test concentrations were diluted in serum free/phenol red free DMEM using the Genesis Freedom 200™ (TECAN) and added to the cells to obtain a 0.3% DMSO final concentration (in a final volume of 40 μL per well).
The luciferase activity was then measured with 40 μL/well steady-Glo Luciferase assay system (Promega, Madison, Wis.) and after incubation at room temperature for 30 minutes. The luminescence was estimated using the Ultra384 reader (TECAN). Data were collected and analyzed using GraphPad Prism software (GraphPad Software V5.02, San Diego Calif. USA). IC50 in μM and Emax in % were reported for each compound.

| IC50 [nM] | Structure (SMILES) |
| --- | --- |
| 10 to 100 | Cc1ccc(C(NC(=O)C2(c3ccc4c(n3)OCC(=O)N4)CC2)c2ccc(C)o2)c(C)c1 (centres unmarked) [Cpd. 144, N-[(2,4-dimethylphenyl)(5-methylfuran-2-yl)methyl]-1-{2-oxo-1H,2H,3H-pyrido[2,3-b][1,4]oxazin-6-yl}cyclopropane-1-carboxamide] |
| 10 to 100 | Cc1ccc(C(NC(=O)C2(c3ccc4c(c3)OCC(=O)N4)CC2)c2cccc(Cl)c2)c(C)c1 (centres unmarked) [Cpd. 143, N-[(3-chlorophenyl)(2,4-dimethylphenyl)methyl]-1-(3-oxo-3,4-dihydro-2H-1,4-benzoxazin-7-yl)cyclopropane-1-carboxamide] |
| 10 to 100 | Cc1ccc(C(NC(=O)Cc2ccc3c(c2)C(O)CC3)c2ccc(C)o2)c(N2CCCCC2)c1 (centres unmarked) [Cpd. 85, 2-(3-hydroxy-2,3-dihydro-1H-inden-5-yl)-N-{[4-methyl-2-(piperidin-1-yl)phenyl](5-methylfuran-2-yl)methyl}acetamide] |
| 100 to 1000 | Cc1ccc(C(NC(=O)C2(c3ccc4c(c3)OCO4)CC2)c2ccc(C)o2)c(Br)c1 (centres unmarked) [Cpd. 161, 1-(2H-1,3-benzodioxol-5-yl)-N-[(2-bromo-4-methylphenyl)(5-methylfuran-2-yl)methyl]cyclopropane-1-carboxamide] |
| 1000 to 10000 | O=C1Cc2cc(CC(=O)NC(c3ccccc3)c3ccccc3N3CCOCC3)ccc2N1 (centres unmarked) [Cpd. 17, N-{[2-(morpholin-4-yl)phenyl](phenyl)methyl}-2-(2-oxo-2,3-dihydro-1H-indol-5-yl)acetamide] |
| 10 to 100 | Cc1ccc(C(NC(=O)C2(c3ccc4[nH]cc(CCO)c4c3)CC2)c2ccc(C)o2)c(N2CCCCC2)c1 (centres unmarked) [Cpd. 66, 1-[3-(2-hydroxyethyl)-1H-indol-5-yl]-N-{[4-methyl-2-(piperidin-1-yl)phenyl](5-methylfuran-2-yl)methyl}cyclopropane-1-carboxamide] |
| 10 to 100 | Cc1ccc(C(NC(=O)Cc2ccc3c(c2)CS(=O)(=O)N3CC2CCOCC2)c2ccc(C)o2)c(C)c1 (centres unmarked) [Cpd. 166, N-[(2,4-dimethylphenyl)(5-methylfuran-2-yl)methyl]-2-[1-(oxan-4-ylmethyl)-2,2-dioxo-1,3-dihydro-2,1-benzothiazol-5-yl]acetamide] |
| 100 to 1000 | Cc1ccc(C(NC(=O)Cc2ccc3c(c2)C(=O)CC3)c2ccc(C)o2)c(N2CCCCC2)c1 (centres unmarked) [Cpd. 67, N-{[4-methyl-2-(piperidin-1-yl)phenyl](5-methylfuran-2-yl)methyl}-2-(3-oxo-2,3-dihydro-1H-inden-5-yl)acetamide] |
| 10 to 100 | Cc1ccc(C(NC(=O)C2(c3ccc4c(c3)C(C)(C)C(=O)N4)CC2)c2ccc(C)o2)c(C)c1 (centres unmarked) [Cpd. 146, 1-(3,3-dimethyl-2-oxo-2,3-dihydro-1H-indol-5-yl)-N-[(2,4-dimethylphenyl)(5-methylfuran-2-yl)methyl]cyclopropane-1-carboxamide] |
| 10 to 100 | Cc1ccc(C(NC(=O)C2(c3ccc4c(ccn4CCO)c3)CC2)c2ccc(C)o2)c(C)c1 (centres unmarked) [Cpd. 69, N-[(2,4-dimethylphenyl)(5-methylfuran-2-yl)methyl]-1-[1-(2-hydroxyethyl)-1H-indol-5-yl]cyclopropane-1-carboxamide] |
| 10 to 100 | Cc1ccc(C(NC(=O)C2(c3ccc4c(c3)OCS(=O)(=O)N4)CC2)c2ccc(C)o2)c(C(F)(F)F)c1 (centres unmarked) [Cpd. 171, 1-(2,2-dioxo-1,3-dihydro-4,2,1-benzoxathiazin-6-yl)-N-{[4-methyl-2-(trifluoromethyl)phenyl](5-methylfuran-2-yl)methyl}cyclopropane-1-carboxamide] |
| < 10 | Cc1ccc(C(NC(=O)C2(c3ccc4c(c3)OCC(=O)N4)CC2)c2ccc(C)o2)c(Br)c1 (centres unmarked) [Cpd. 135, N-[(2-bromo-4-methylphenyl)(5-methylfuran-2-yl)methyl]-1-(3-oxo-3,4-dihydro-2H-1,4-benzoxazin-7-yl)cyclopropane-1-carboxamide] |
| < 10 | Cc1ccc(C(NC(=O)C2(c3ccc4c(c3)OCC(=O)N4)CC2)c2ccc(Cl)o2)c(C)c1 (centres unmarked) [Cpd. 134, N-[(5-chlorofuran-2-yl)(2,4-dimethylphenyl)methyl]-1-(3-oxo-3,4-dihydro-2H-1,4-benzoxazin-7-yl)cyclopropane-1-carboxamide] |
| 100 to 1000 | COc1ccc(C(NC(=O)Cc2ccc3c(ccn3CCC(=O)OC(C)(C)C)c2)c2ccc(C)o2)c(N2CCCCCC2)c1 (centres unmarked) [Cpd. 110, tert-butyl 3-{5-[({[2-(azepan-1-yl)-4-methoxyphenyl](5-methylfuran-2-yl)methyl}carbamoyl)methyl]-1H-indol-1-yl}propanoate] |
| 10 to 100 | Cc1ccc(C(NC(=O)C2(c3ccc4c(c3)CN(S(C)(=O)=O)C4)CC2)c2ccc(C)o2)c(C)c1 (centres unmarked) [Cpd. 65, N-[(2,4-dimethylphenyl)(5-methylfuran-2-yl)methyl]-1-(2-methanesulfonyl-2,3-dihydro-1H-isoindol-5-yl)cyclopropane-1-carboxamide] |
| < 10 | Cc1ccc(C(NC(=O)C2(c3ccc4c(ccn4CCC(=O)O)c3)CC2)c2ccc(C)o2)c(N2CCCCC2)c1 (centres unmarked) [Cpd. 154, 3-{5-[1-({[4-methyl-2-(piperidin-1-yl)phenyl](5-methylfuran-2-yl)methyl}carbamoyl)cyclopropyl]-1H-indol-1-yl}propanoic acid] |
| 100 to 1000 | Cc1ccc(C(NC(=O)Cc2ccc3c(c2)CCC3=O)c2ccc(C)o2)c(N2CCCCC2)c1 (centres unmarked) [Cpd. 51, N-{[4-methyl-2-(piperidin-1-yl)phenyl](5-methylfuran-2-yl)methyl}-2-(1-oxo-2,3-dihydro-1H-inden-5-yl)acetamide] |
| 100 to 1000 | Cc1ccc(C(NC(=O)Cc2ccc3c(c2)C(O)C(=O)N3)c2ccc(C)o2)c(N2CCCCC2)c1 (centres unmarked) [Cpd. 46, 2-(3-hydroxy-2-oxo-2,3-dihydro-1H-indol-5-yl)-N-{[4-methyl-2-(piperidin-1-yl)phenyl](5-methylfuran-2-yl)methyl}acetamide] |
| 100 to 1000 | Cc1ccc(C(NC(=O)C2(c3ccc4c(c3)CCC4=O)CC2)c2ccc(C)o2)c(C)c1 (centres unmarked) [Cpd. 141, N-[(2,4-dimethylphenyl)(5-methylfuran-2-yl)methyl]-1-(1-oxo-2,3-dihydro-1H-inden-5-yl)cyclopropane-1-carboxamide] |
| 10 to 100 | Cc1ccc(C(NC(=O)C2(c3ccc4c(c3)OCC(=O)N4)CC2)c2ccco2)c(C)c1 (centres unmarked) [Cpd. 139, N-[(2,4-dimethylphenyl)(furan-2-yl)methyl]-1-(3-oxo-3,4-dihydro-2H-1,4-benzoxazin-7-yl)cyclopropane-1-carboxamide] |
| 10 to 100 | Cc1ccc(C(NC(=O)C2(c3ccc4c(c3)OCC(=O)N4)CC2)c2cccc(C)n2)c(C)c1 (centres unmarked) [Cpd. 136, N-[(2,4-dimethylphenyl)(6-methylpyridin-2-yl)methyl]-1-(3-oxo-3,4-dihydro-2H-1,4-benzoxazin-7-yl)cyclopropane-1-carboxamide] |
| 10 to 100 | Cc1ccc(C(NC(=O)Cc2ccc3c(ccn3CC3CCOCC3)c2)c2ccc(C)o2)c(N2CCCCC2)c1 (centres unmarked) [Cpd. 113, N-{[4-methyl-2-(piperidin-1-yl)phenyl](5-methylfuran-2-yl)methyl}-2-[1-(oxan-4-ylmethyl)-1H-indol-5-yl]acetamide] |
| 10 to 100 | Cc1ccc(C(NC(=O)C2(c3cc(F)c4c(c3)CC(=O)N4)CC2)c2ccc(C)o2)c(C)c1 (centres unmarked) [Cpd. 158, N-[(2,4-dimethylphenyl)(5-methylfuran-2-yl)methyl]-1-(7-fluoro-2-oxo-2,3-dihydro-1H-indol-5-yl)cyclopropane-1-carboxamide] |
| 10 to 100 | Cc1ccc(C(NC(=O)C2(c3ccc4c(c3)OCS(=O)(=O)N4)CC2)c2ccc(C)o2)c(Br)c1 (centres unmarked) [Cpd. 131, N-[(2-bromo-4-methylphenyl)(5-methylfuran-2-yl)methyl]-1-(2,2-dioxo-1,3-dihydro-4,2,1-benzoxathiazin-6-yl)cyclopropane-1-carboxamide] |
| 10 to 100 | Cc1ccc(C(NC(=O)C2(c3ccc4c(c3)CCC4O)CC2)c2ccc(C)o2)c(C)c1 (centres unmarked) [Cpd. 155, N-[(2,4-dimethylphenyl)(5-methylfuran-2-yl)methyl]-1-(1-hydroxy-2,3-dihydro-1H-inden-5-yl)cyclopropane-1-carboxamide] |
| 100 to 1000 | CC(C)=C1C(=O)Nc2ccc(CC(=O)NC(c3ccc(C)o3)c3ccc(C)cc3N3CCCCC3)cc21 (centres unmarked) [Cpd. 55, N-{[4-methyl-2-(piperidin-1-yl)phenyl](5-methylfuran-2-yl)methyl}-2-[2-oxo-3-(propan-2-ylidene)-2,3-dihydro-1H-indol-5-yl]acetamide] |
